Data on 1 sequence can be found in PMC12647017, “Discovery and optimization of a synthetic small protein domain targeting antibodies” (Frontiers in Bioengineering and Biotechnology, 2025).

This assay relates to human polyclonal IgG. The assay can be described thus: Screening ELISA of phage display clones (crude extracts) against human polyclonal IgG. The format is binding. As to conditions: crude extract of clones from 6th panning round, 1 µg/well human polyclonal IgG, blocked 3% (w/v) BSA in TBS, 50 µL extract 1 h at 37 °C, Anti-HA tag-HRP, ABTS, Abs405nm. As for the experimental part:
The biopanning of the previously developed WWp5_4 library ([Dias et al., 2025]) (Figures 1A,B) against human polyclonal IgG was performed for six rounds, after which an enrichment of ligands was observed (Supplementary Table S3). To assess the binding of each clone to the target, 192 clones were selected and expressed at small scale in 96-deep well blocks, following conditions previously optimised. After cell lysis, the supernatant containing the soluble fraction was used for ELISA assays. The results in Figure 1C illustrate the difference in the absorbance profile of the screened ligands. […] From these 26, only 21 presented high quality for reliable sequencing results. The sequence alignment and diversity of the different binders is represented in Table 1 and Figure 2A.
Small Scale Protein Expression and screening ELISA: From the output of the 6th round of panning, 94 isolated colonies were peaked into two sterile 96-well deep well 2mL round-bottom plates and grown with 200 µL of LB with ampicillin, 125 rpm, 37 °C, overnight (master plates). The following day, to one of the master plates was added glycerol to achieve a final concentration of 15% and was stored at -80 °C. Regarding the other master plate, 12 µL of this culture was added to another sterile 96-well deep well 2 mL round-bottom plate with 1.2 mL of LB with ampicillin and was grown at 37 °C, 125 rpm until OD600nm achieved 0.5-0.6. After this, protein expression was induced with 1 mM IPTG and continued incubation with the previous conditions. The following day, the cultures were sonicated for 30 minutes in ice-water bath and centrifuged for 10 minutes at 2500 x g. The supernatant was collected and transferred to a new microplate to be used in the screening for the ELISA (crude extract). For the ELISA, three microplates were tested: A) Sample binding plate; B) Negative control plate; C) Expression plate. On the sample binding plate, 1 µg/well of human polyclonal IgG was immobilized on the plate at 4 °C, overnight. On the following day, the target was removed, and the wells were washed once with TBS, then the plate was blocked with 300 µL 3% (w/v) BSA in TBS for 1 hour at 37 °C. After this, the wells were washed once with TBS, and were then incubated with 50 µL of crude extract (containing WW domain) for 1 hour at 37 °C. The plate was then washed 5 times with TBS-T, and then incubated with 100 µL of the Anti-HA tag-HRP conjugated antibody (diluted 1:1000) for 1 hour at 37 °C. The plate was then washed once with TBS-T and 4 times with TBS, and then incubated with the substrate ABTS for 1 hour at the dark at 37 °C. The results were then analysed in a microplate reader (TECAN) and the Abs405nm was then measured.
For the Negative control plate the protocol was the same as for the Binding microplate, except for the target immobilization. Instead of having IgG, only coating buffer was added. This plate allows to detect clones that unspecific bind to BSA present in the Blocking Buffer. For the Expression plate the protocol started at the step of incubation with the crude extract, and from there the steps were the same as the Binding microplate. This plate allows to detect clone’s basal expression level.

Take “SMGLPPGWDEYKT RRFKL GKTYYYNH HILS KTSTWTDPRMSS [Clone E6]”: the ELISA signal result is “High (high binders (Abs>0.4))”.
